Laboratory results taken from patent publication US8334277B2, “{4-[2-(dimethylamino)-1-(1-hydroxycyclohexyl)ethyl]phenoxy}phosphate or a pharmaceutically acceptable salt thereof, a production method therefor and a pharmaceutical composition for preventing and treating central nervous system disorders containing the same as an active component” (JE IL Pharmaceutical Co., Ltd., priority 2008, dated 2012).

Assays:
[1] = Measurement of solubility in water (HPLC, saturated solution); type: physicochemical
Protocol: Experiment was conducted to measure water solubility of ODV phosphate compound of the present invention.
40, 50 and 60 mg of ODV phosphate composition prepared by the embodiment was mixed in 100 mL of water to form 0.4, 0.5 and 0.6 mg/mL concentration of ODV phosphate solution respectively. The above ODV phosphate solution and internal standard substance were analyzed with HPLC to measure ODV phosphate according to the concentration of ODV phosphate and peak area ratio of internal standard substance, and a calibration curve was set. The HPLC analysis was done many times to measure the average value of the calibration curve.
An excessive amount of ODV phosphate compound (approximately 400 mg) prepared by the embodiment was dissolved in 2 mL of water and filtered to form a saturated solution. 1 mL of the above saturated solution was diluted with water to prepare 20 mL of solution. The diluting process was repeated many times to form saturated solution with 800 times of dilution rate. This solution and internal standard substance were analyzed with HPLC to measure ODV phosphate and peak area ratio of internal standard. The measured value was substituted in calibration curve to calculate the concentration, and multiply the dilution rate to measure solubility.

ICR mice = experiment: Acute toxicity experiment, intraperitoneal injection, number of dead mice over 7 days; type: in vivo; details: for The number of death mice: Day 1, 8 mice
Protocol: Experiment was conducted to measure acute toxicity of ODV phosphate compound according to an embodiment of the present invention.
7-week-old ICR mice, weighing 25˜35 g each, were used in the experiment (SPF, production firm: coretech).

[2] = Pharmacokinetics experiment, oral administration, blood concentration by LC/MS/MS; type: in vivo, SD rats; details: 120 mg/kg oral
Protocol: 9-week-old female […], SD rats, weighing 320±20 g each, were used in the experiment (SPF, production firm: coretech). ODV phosphate compound prepared by the embodiment was dissolved in solvent (100% distilled water) and 120 mg/kg of the same was orally administered to 3 mice. After 0.08, 0.25, 0.5, 1, 2, 3, 4, 6 hours of administration, blood was taken from mice, and separated by centrifuge. The concentration of the separated blood was measured with LC/MS/MS. As a comparative example, ODV succinate hydrate was measured in the same manner explained above.
Cmax is the highest concentration level of blood in body, Tmax is the time to reach the highest concentration level of blood, AUC0-t is square between blood concentration to time and time, AUC0-inf is square between blood concentration and time, and t1/2 is half-life of compound in body, and MRTinf is remaining period of compound in body.

For `CN(C)CC(c1ccc(OP(=O)(O)O)cc1)C1(O)CCCCC1` (stereo not shown) [ODV phosphate, {4-[2-(dimethylamino)-1-(1-hydroxycyclohexyl)ethyl]phenoxy}phosphate], which “water solubility, times higher than ODV succinate” value ([1]; 313.4 vs […]) is on record?
Its value is 4 times.

And the solubility ([1]; thermodynamic from solid)?
Its solubility is 313 mg/mL.

What about the “dead mice over the whole observation” value (ICR mice; 450 mg/kg i.p., for 7 days, 8 mice) of the same compound?
Its value is “no mice were dead”.

What about the “AUC0-inf compared with ODV succinate hydrate” value [2] of the same compound?
The value was “noticeably higher”.

And the “Cmax compared with ODV succinate hydrate” value [2]?
The value was “noticeably higher”.

For `CN(C)CC(c1ccc(O)cc1)C1(O)CCCCC1.O=C(O)CCC(=O)O` (stereo not shown) [ODV succinate], which “The number of death mice” value (ICR mice; 350 mg/kg i.p.) is on record?
The value was 2.

And the “The number of death mice” value (ICR mice; 450 mg/kg i.p.)?
The value was 8.

What about the AUC0-inf ([2]; blood) of the same compound?
The AUC0-inf was 9268.8 ng·h/mL.

What about the Cmax ([2]; blood) of the same compound?
The Cmax was 2786.7 ng/mL.

What about the MRTinf ([2]; blood) of the same compound?
The MRTinf was 5.7 h.

What about the Tmax ([2]; blood) of the same compound?
The Tmax was 0.5 h.

What about the t1/2 ([2]; blood) of the same compound?
The t1/2 was 5.0 h.

And the AUC0-t ([2]; blood, sampling to 6 hours)?
The AUC0-t was 7017.4 ng·h/mL.
